Experimental data: US20210386706A1, “METHODS FOR THE TREATMENT OF SCLERODERMA” (Arena Pharmaceuticals, Inc., priority 2018, published 2021)

How the values were obtained:
S1P1 [1] = biological target: T1, S1P1 (Homo sapiens, UniProt P21453); test: cAMP assay; type: cell-based; conditions: read-out: ECK, cAMP
S1P1 [2] = biological target: T1, S1P1; test: β-arrestin assay S1P1; type: cell-based
S1P2 = S1P2 (Homo sapiens, UniProt O95136); test: β-arrestin assay S1P2; type: cell-based
S1P3 = S1P3 (Homo sapiens, UniProt Q99500); test: β-arrestin assay S1P3; type: cell-based
S1P4 = biological target: T2, S1P4 (Homo sapiens, UniProt O95977); test: β-arrestin assay S1P4; type: cell-based
T2 sequence (O95977 1-384): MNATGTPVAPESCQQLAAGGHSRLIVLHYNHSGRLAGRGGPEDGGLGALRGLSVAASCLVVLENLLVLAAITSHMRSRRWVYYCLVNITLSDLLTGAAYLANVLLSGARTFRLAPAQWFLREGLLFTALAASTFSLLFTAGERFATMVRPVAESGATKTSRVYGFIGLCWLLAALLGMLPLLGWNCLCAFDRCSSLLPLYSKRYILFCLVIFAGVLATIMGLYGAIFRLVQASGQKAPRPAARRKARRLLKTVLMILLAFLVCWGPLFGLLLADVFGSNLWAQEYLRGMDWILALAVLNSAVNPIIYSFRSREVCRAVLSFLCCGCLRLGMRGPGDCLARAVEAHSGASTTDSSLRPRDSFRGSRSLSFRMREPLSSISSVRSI

S1P5 = S1P5 (Homo sapiens, UniProt Q9H228); test: β-arrestin assay S1P5; type: cell-based
[3] = tested on: bleomycin-induced skin fibrosis; test: bleomycin-induced rodent model of skin fibrosis; type: in vivo, male C57BL/6 mice; conditions: mice, PO QD
Protocol: Compound 1 was evaluated in a bleomycin-induced rodent model of skin fibrosis. Skin fibrosis was induced in male C57BL/6 mice (6-7 weeks old; 20-25 g) with bleomycin injections at a concentration of 0.5 mg/ml via subcutaneous (SC) route. The mice received 100 μl of bleomycin at 0.5 mg/ml dissolved in PBS every other day for 21 days. The following treatments were randomly assigned: 1.) sham+vehicle (10% HBPCD/saline) per oral (PO) once daily (QD); 2.) bleomycin+vehicle (10% HBPCD/saline) PO QD; 3.) bleomycin+1 mg/kg Compound 1 PO QD; 4.) bleomycin+3 mg/kg Compound 1 PO QD; 5.) bleomycin+1 mg/kg FTY720 PO 3×/week; 6.) bleomycin+90 mg/kg FTY720 intraperitoneal (IP) QD (FIG. 1). Skin tissue was harvested post-mortem, with half of the biopsy specimen fixed in 4% wt/vol. paraformaldehyde for histology and the other half snap frozen for collagen analysis (hydroxyproline assay). Histological sections (4 μm) were cut from paraffin-embedded PFA-fixed lesional skin tissue. Sections were stained with haematoxylin and eosin (H&E) and Masson's Trichrome. Images were captured at ×100 microscopic magnification for histological dermal thickness determination. Collagen deposition (FIG. 2A), dermal thickness (FIG. 2B), tissue sections (FIG. 2C), dermal fibrosis (FIG. 3A), inflammation (FIG. 3B), and average epidermal thickness (FIG. 3C) were evaluated.

lymphocytes = test: single ascending dose and multiple ascending dose studies in healthy subjects; type: in vivo

T1 sequence (P21453 whole entry): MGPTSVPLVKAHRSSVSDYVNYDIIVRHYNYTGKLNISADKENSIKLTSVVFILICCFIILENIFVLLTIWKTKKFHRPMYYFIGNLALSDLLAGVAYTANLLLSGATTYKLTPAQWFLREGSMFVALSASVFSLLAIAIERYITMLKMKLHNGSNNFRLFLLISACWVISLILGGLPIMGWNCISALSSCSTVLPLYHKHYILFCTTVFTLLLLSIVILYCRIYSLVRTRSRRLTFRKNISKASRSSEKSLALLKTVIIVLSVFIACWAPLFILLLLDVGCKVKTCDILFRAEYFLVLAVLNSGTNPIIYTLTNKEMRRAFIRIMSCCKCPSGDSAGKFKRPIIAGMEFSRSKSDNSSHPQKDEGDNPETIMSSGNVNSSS
S1P3, sequence (Q99500 whole entry): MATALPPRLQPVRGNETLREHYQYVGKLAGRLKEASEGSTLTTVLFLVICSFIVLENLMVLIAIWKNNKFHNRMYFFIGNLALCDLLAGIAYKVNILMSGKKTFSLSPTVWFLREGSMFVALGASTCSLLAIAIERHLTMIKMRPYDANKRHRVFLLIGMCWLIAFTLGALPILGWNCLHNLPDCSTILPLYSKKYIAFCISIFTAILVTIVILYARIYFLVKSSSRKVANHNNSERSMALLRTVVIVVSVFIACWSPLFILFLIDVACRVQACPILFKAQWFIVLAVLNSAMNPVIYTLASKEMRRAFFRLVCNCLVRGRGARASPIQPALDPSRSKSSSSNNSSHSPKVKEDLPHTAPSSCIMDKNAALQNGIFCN
S1P5, sequence (Q9H228 whole entry): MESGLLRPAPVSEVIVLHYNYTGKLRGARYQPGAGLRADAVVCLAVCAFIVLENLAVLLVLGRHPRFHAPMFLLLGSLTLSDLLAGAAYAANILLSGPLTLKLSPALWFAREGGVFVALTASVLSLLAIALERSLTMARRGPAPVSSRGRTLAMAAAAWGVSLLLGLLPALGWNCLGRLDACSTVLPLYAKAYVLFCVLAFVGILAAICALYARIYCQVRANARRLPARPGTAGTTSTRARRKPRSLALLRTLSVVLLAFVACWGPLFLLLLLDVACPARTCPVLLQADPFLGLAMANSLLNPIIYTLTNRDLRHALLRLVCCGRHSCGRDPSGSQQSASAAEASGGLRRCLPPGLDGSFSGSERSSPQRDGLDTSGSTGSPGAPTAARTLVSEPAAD
S1P2, sequence (O95136 whole entry): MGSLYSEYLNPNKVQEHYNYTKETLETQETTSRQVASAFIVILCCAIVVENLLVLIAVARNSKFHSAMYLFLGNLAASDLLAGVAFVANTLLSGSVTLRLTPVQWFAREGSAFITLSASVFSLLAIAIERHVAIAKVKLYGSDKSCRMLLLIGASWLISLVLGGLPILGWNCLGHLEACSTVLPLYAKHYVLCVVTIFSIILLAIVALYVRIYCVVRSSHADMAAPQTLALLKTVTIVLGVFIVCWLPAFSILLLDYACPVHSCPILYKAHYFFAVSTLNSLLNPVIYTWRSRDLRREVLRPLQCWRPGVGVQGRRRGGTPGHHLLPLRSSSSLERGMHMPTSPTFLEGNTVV

SMILES: O=C(O)C[C@H]1CCc2c1[nH]c1ccc(OCc3ccc(C4CCCC4)c(C(F)(F)F)c3)cc21 [Compound 1, (R)-2-(7-(4-cyclopentyl-3-(trifluoromethyl)benzyloxy)-1,2,3,4-tetrahydrocyclopenta[b]indol-3-yl)acetic acid]
- EC50 (S1P1 [1]): 0.093 nM
- EC50 (S1P1 [2]): 6.1 nM
- EC50 (S1P2): > 10000 nM
- EC50 (S1P3): > 10000 nM
- EC50 (S1P4): 147 nM
- EC50 (S1P5): 24.4 nM
- dermal thickening ([3]; histology, FIG. 2B): significantly reduced
- collagen deposition ([3]; hydroxyproline assay, FIG. 2A): significantly reduced
- lymphocyte lowering (lymphocytes): demonstrated the lymphocyte lowering capabilities
